Data published in patent publication US6451851B1, “Pharmaceutical composition with antiviral activity containing an hydroxymic acid derivative and an antiviral agent” (N-Gene Research Laboratories Inc., priority 1997, dated 2002).

Molecular target: T1, Recombinant M-MuLV reverse transcriptase (Moloney murine leukemia virus, UniProt P03355)
T1 construct: Recombinant M-MuLV reverse transcriptase was purchased from New England Biolabs, USA; purchased New England Biolabs
Assay: Inhibition of M-MuLV reverse transcriptase activity ((3H)dTTP incorporation)
Format: biochemical
Method: The enhanced antiviral effect of the pharmaceutical composition of the invention was investigated by testing the inhibitory effect thereof on reverse transcriptase activity of Moloney murine virus(M-MuLV). Recombinant M-MuLV reverse transcriptase was purchased from New England Biolabs, USA. Measurement of the activity was carried out by investigating the poli(rA)noligo(dT)12-18 template-primer directed incorporation of (^3H)dTTP(Amersham) into the cDNS.
In each case, the final volume of the reaction mixture was 20 microliters. The composition of the reaction mixture was as follows:
2 microliters of 10× reverse transcriptase buffer,
20 microgram/ml template primer,
the test compound (dissolved in 1× reverse transcriptase buffer solution).
The composition of the 10× reverse transcriptase buffer (1 liter of solution contains the following substances):
500 mM tris-hydrochloride/tris (hydroxy-methyl)-amino-methan-hydrochloride/(pH=8,3),
300 mM potassium-chloride, and
100 mM DTT (dithiotreitol).
The test materials were AZT and compound “L” added separately or together. The reaction was initiated by adding 5U reverse transcriptase. The reaction mixture was incubated for 40 min at 37° C. Then, 15 microliters of reaction mixture was transferred to Whatman DE81 filter-paper disc, washed by 5% by mass of aqueous disodium-hydrogen-phosphate buffer, by water, and then with 96% by mass of ethanol. After drying, the discs were transferred into 5 ml of scintillation liquid (OptiPhase ‘HiSafe 3’, Wallac), and the radioactivity of samples was measured by a Packard Tri-Carb 2200 CE liquid scintillation counter. Enzymatic activity was calculated in percent from the experimental results.

SMILES | activity at 0.1 µM (0.1 microM/ml AZT, control = 100) | activity at 0.2 µM (0.2 microM/ml AZT, control = 100) | inhibitory effect on M-MuLV reverse transcriptase (in words) (AZT by itself, in the concentrations applied) | Activity (%) (0.02 mg/ml compound “L”, control = 100) | Activity (%) (0.03 mg/ml compound “L”, control = 100) | inhibitory effect (compound “L” alone)
Cc1cn([C@H]2C[C@H](N=[N+]=[N-])[C@@H](CO)O2)c(=O)[nH]c1=O [AZT, 3′-azido-3′-deoxythymidine] | 91% | 84% | only minor inhibitory effect | – | – | –
Cl.Cl.NC(=NOCC(O)CN1CCCCC1)c1cccnc1 (stereo not drawn) [compound “L”, 0-(3-piperidino-2-hydroxy-1-propyl)nicotinic acid amid-oxime dihydrochloride] | – | – | – | 75% | 74% | about 25%
